Experimental data taken from US10300048B2, “Thiazolidinones as cellular anandamide uptake inhibitors and their use in the treatment of psychiatric or neurological disorders and inflammation, in particular neuroinflammation” (UNIVERSITAT BERN, priority 2014, dated 2019).
Like-named read-outs stand apart in the source and are kept apart here.

Tests used:
hCB1 receptor = hCB1 receptor (Homo sapiens (Human), UniProt P21554); assay: Radioligand CB receptor binding, [3H]-CP55,940 displacement on CHO-K1 hCB1 membranes; details: for CB1 receptor binding (%) at 10 µM: Table 4
hCB1 receptor, sequence (P21554 whole entry): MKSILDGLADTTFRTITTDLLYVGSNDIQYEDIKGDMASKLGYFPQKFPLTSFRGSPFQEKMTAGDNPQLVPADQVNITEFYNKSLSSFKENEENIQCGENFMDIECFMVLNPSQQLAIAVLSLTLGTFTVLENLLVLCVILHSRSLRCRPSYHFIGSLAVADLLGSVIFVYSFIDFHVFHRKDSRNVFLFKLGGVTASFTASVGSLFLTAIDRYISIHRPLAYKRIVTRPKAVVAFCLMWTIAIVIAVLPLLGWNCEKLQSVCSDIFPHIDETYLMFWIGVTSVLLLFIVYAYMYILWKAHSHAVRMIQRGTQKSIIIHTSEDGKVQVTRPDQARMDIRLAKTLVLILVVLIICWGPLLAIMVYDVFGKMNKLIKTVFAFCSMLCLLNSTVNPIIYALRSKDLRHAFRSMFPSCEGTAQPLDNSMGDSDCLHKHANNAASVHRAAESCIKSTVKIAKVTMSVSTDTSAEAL
Protocol: Stably transfected CHO-K1 cells expressing hCB1 or hCB2 receptors (Gertsch et al., 2008, Proc Natl Acad Sci 105, 9099-104) were cultured in T150 cm^2 flasks up to 90% confluence. The medium was removed and cells were washed twice with PBS, 37° C. 10 mL of PBS was added and the cells were scraped and transferred into a falcon tube following homogenization by a Polytron PT1300D for 5 min at 30 krpm. Then, the homogenate was centrifuged (1400×g, 5 min) to remove debris. The supernatant was subjected to ultracentrifugation (64000×g, 45 min, 4° C.) to separate cytosolic from the membrane fraction. The supernatant was discharged and the pellet resuspended in PBS by sonication. Protein quantity was determined by BCA assay (Thermo Scientific) and aliquots of 500 μL were stored at −80° C. until use.
Radioligand CB Receptor Binding
Binding properties of ETI-T compounds to hCB1 or hCB2 receptors were performed as previously reported in a [^3H]-CP55,940 displacement assay (Gertsch et al., 2008, Proc Natl Acad Sci 105, 9099-104). WIN 55,212-2 was used as positive control. In brief, 20 μg protein of CHO-K1 hCB1 or hCB2 membrane preparations were thawed on ice and resuspended in a final volume of 500 μL binding buffer (50 mM Tris-HCl, 2.5 mM EDTA, 5 mM MgCl2, 0.5% fatty acid free BSA, pH 7.4) in silanized glass vials. [^3H]-CP55,940 (168 Ci/mmol) (PerkinElmer, Waltham, Mass., US) was added to a final concentration of 0.5 nM followed by the addition of competitors or vehicle in 5 μL DMSO. Membrane binding was equilibrated for 2 h at room temperature (25° C.). Samples were filter through a 0.1% polyethylenimine pre-soaked UniFilter®-96 GF/B plate (PerkinElmer) and washed twelve times with 167 μL ice-cold assay-buffer. The plate was dried, bottom sealed and 45 μL MicroScint 20 scintillation cocktail (PerkinElmer) were added before measured on a PerkinElmer 1450 Microbeta TRILUX liquid scintillation counter. Unspecific binding was determined by WIN 55,212-2, 10 μM and subtracted from all values. […].

FAAH = FAAH (Homo sapiens (Human), UniProt O00519); assay: FAAH activity: hydrolysis of [3H]-AEA in U937 cell homogenates; assay type: biochemical; details: U937 cell homogenate, read-out: FAAH inhibition IC50
FAAH, sequence (O00519 whole entry): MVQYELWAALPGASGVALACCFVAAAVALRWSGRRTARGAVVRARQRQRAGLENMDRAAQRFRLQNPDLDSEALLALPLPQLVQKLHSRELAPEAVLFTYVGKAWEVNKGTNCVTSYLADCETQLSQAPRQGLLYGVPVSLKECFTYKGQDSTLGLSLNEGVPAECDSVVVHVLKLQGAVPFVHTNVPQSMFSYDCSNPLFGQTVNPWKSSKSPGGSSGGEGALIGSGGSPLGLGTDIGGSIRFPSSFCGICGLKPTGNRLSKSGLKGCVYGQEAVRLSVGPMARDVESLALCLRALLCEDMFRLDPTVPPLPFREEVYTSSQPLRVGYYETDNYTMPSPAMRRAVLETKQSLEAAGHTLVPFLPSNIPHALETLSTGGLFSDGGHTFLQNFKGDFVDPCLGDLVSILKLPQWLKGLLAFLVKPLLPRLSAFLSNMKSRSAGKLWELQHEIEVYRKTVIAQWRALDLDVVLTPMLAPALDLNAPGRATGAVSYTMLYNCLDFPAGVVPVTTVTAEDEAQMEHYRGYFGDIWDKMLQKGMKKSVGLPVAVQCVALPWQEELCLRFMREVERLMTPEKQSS
Protocol: Hydrolysis of [^3H]-AEA by FAAH was determined as previously described in cell homogenates of U937 cells (0.18 mg protein) (Omeir et al., 1999, Biochem Biophys Res Commun, 264, 316-20; Mor et al., 2004, J Med Chem, 47, 4998-5008). Protein amounts of cell homogenates corresponded to 0.5×10^6 cells (U937), to assure best possible comparability of IC50 values as used for the AEA cellular uptake assays. URB597 was used as positive control. Protein quantification was performed using a BCA assay (Thermo Scientific). Enzyme activity was assessed by addition of vehicle or compounds in 10 μL DMSO to 490 μL homogenate in 10 mM Tris HCl, 1 mM EDTA, 0.1% (w/v) BSA fatty acid free, pH=8 and incubation for 15 min at 37° C. After, a mixture of AEA plus [ethanolamine-1-^3H]-AEA (0.5 nM) at final 100 nM was added to the homogenates and incubated for 15 min at 37° C. The reaction was stopped by addition of 1 mL ice-cold CHCl3:MeOH (1:1) followed by vigorous vortexing. Phase separation was achieved by centrifugation at 10′000×g at 4° C. for 10 min. Radioactivity of the separated aqueous phase (upper phase) containing [^3H-ethanolamine] or [^3H-glycerol] was measured by liquid scintillation counting on a Tri-Carb 2100 TR liquid scintillation analyzer after addition of 3.5 mL Ultima Gold scintillation cocktail (PerkinElmer Life Sciences). Results are expressed as hydrolysis of tritium substrate in percent of vehicle treated control. IC50 values were calculated by GraphPad®. Data are reported as means of n=3 independent experiments performed in triplicates.
(§1) Statistical analysis and IC50 values were determined using GraphPad® Prism 5.0 (GraphPad® Software, San Diego, Calif., US). Inhibition curves were obtained by non-linear regression using the built-in log(inhibitor) vs. response-variable slope (four parameters) function. Results were calculated as % of vehicle control of the corresponding fraction (cells, aqueous phase) if not mentioned else. In vivo results are shown in absolute values and were analyzed by a one-way ANOVA following a Tukey's multiple comparison test or student's t-test. If not indicated else the results were compared vs. vehicle (CTRL). *** P<0.001, ** P<0.01, * P<0.05, ns=not significant P>0.05.

BALB/c mice = assay: In vivo tetrad test in BALB/c mice; details: 5.0 mg/kg i.p., vs. vehicle; for anti-nociceptive effect in the hot plate test / locomotion (RotaRod) / time spent in the immobile state (catalepsy, bar test): 60 min; for body temperature (tetrad test): 1 h post injection
Protocol: In vivo Tetrad Test in BALB/c Mice
In mice cannabimimetic substances induce a characteristic profile of behavioral effects (tetrad) which include suppression of locomotion, antinociception, hypothermia and catalepsy (Martin et al., 1991, Pharmacol Biochem Behav, 40, 471-8; Wiley, 2003, Eur J Pharmacol, 471, 185-93; Howlett et al., 2002, Pharmacol Rev, 54, 161-202). Male BALB/c mice (8 weeks old, 20-25 g body weight) were housed under standard environmental conditions (n=5 per cage) at 22-24° C. under a 12 h to 12 h light-dark cycle supplied with food and water ad libitum. ETI-T compounds were dissolved in pure DMSO and administered intraperitoneally (i.p) at doses of 5.0 mg/kg in 20 μL of vehicle 60 min prior to evaluation of behavioural effects. The tetrad test battery was carried out as follows: Rectal temperature was determined using a Physitemp thermometer (Physitemp Instruments Inc., Clifton, N.J. with a thermocoupled probe 1-2 cm into the rectum. The temperature was measured 10 min before compound administration and 1 h post injection. Changes in rectal temperature were expressed as the difference between basal and post injection temperatures. Catalepsy was determined using the bar test where mice were placed on a bar oriented parallel to and approximately 4-5 cm off of the ground. The duration of the time a mouse remained motionless (except respiration) with its front paws on the bar was scored over 40 s. Hypomotility was determined using the RotaRod performance test based on a rotating rod with forced motor activity being applied to the mouse. The maximal duration of this test was about 120 s at a velocity of 4 rpm. Analgesia was determined by the hot plate test. Mice were place on a heated plate (54-56° C.) in a Plexiglas cylinder for a maximum of 2 min. […] All experiments were repeated independently on different days. Animals were handled according to the guidelines on use and care of experimental animals (Mexican Official Norm NOM-062-ZOO-1999 published by SAGARPA in the Diario Oficial del Gobierno Mexicano, 2001), which is in accordance with the Code of Ethics of the Directive 2010/63/EU.
as §1

Structure (SMILES): COc1ccc(/C=C2\S/C(=N\c3ccc(OC)cc3)N(c3ccc(OC)cc3)C2=O)cc1 [Compound 5]
- CB1 receptor binding (%) at 10 µM (hCB1 receptor): 37%
- IC50 (FAAH; Table 4): 20.4 µM
- anti-nociceptive effect in the hot plate test (BALB/c mice): anti-nociceptive effect
- locomotion (RotaRod) (BALB/c mice): reduced locomotion
- time spent in the immobile state (catalepsy, bar test) (BALB/c mice): increased time spent in the immobile state
- body temperature (tetrad test) (BALB/c mice): decreased body temperature

Structure (SMILES): COc1cc(/C=C2\S/C(=N\c3ccccc3)N(c3ccccc3)C2=O)ccc1O [Compound 6]
- CB1 receptor binding (%) at 10 µM (hCB1 receptor): 64%
- IC50 (FAAH; Table 4): 26.9 µM
- anti-nociceptive effect in the hot plate test (BALB/c mice): anti-nociceptive effect
- locomotion (RotaRod) (BALB/c mice): reduced locomotion
- body temperature (tetrad test) (BALB/c mice): decreased body temperature

Structure (SMILES): O=C1/C(=C/c2cc(Cl)c(O)c(Cl)c2)S/C(=N\c2ccccc2)N1Cc1ccco1 [Compound 23]
- CB1 receptor binding % binding at 10 μM (hCB1 receptor; Table 3): 24%
- CB1 receptor binding (%) at 10 µM (hCB1 receptor): 24%
- IC50 (FAAH; Table 2): 60.3 µM
- IC50 (FAAH; Table 4): 60.3 µM
- anti-nociceptive effect in the hot plate test (BALB/c mice): anti-nociceptive effect
- time spent in the immobile state (catalepsy, bar test) (BALB/c mice): increased time spent in the immobile state
- body temperature (tetrad test) (BALB/c mice): decreased body temperature
